According to article PMC4281354, “The opioid receptor pharmacology of GSK1521498 compared to other ligands with differential effects on compulsive reward-related behaviours” (Psychopharmacology, 2014):
pEC50, pKi: −log10 of the molar value. Where a name gives a salt, the structure may show the parent alone. Read-outs that look alike come from different tables or passages of the source.

How the values were obtained:
[1] = biological target: human NOPr (Homo sapiens, UniProt P41146); test: Antagonism of nociceptin-stimulated [35S]GTPγS binding, CHO membranes overexpressing NOPr (SPA, antagonist mode); assay type: biochemical
[2] = tested on: K+ current in rat brain neurons; design: method as in Bailey et al. [2009]; conditions: ref Bailey et al. [2009], read-out: EC50 for activation of the K+ current; cited from earlier work
[3] = biological target: T1, MOPr (Homo sapiens, UniProt P35372); test: Antagonism of Met-Enk-stimulated [35S]GTPγS binding, CHO membranes overexpressing MOPr (SPA, antagonist mode); assay type: biochemical
[4] = biological target: T1, MOPr; test: Basal [35S]GTPγS binding, CHO membranes overexpressing MOPr (agonist mode); assay type: biochemical
[5] = biological target: human DOPr (Homo sapiens, UniProt P41143); test: Antagonism of Met-Enk-stimulated [35S]GTPγS binding, CHO membranes overexpressing DOPr (SPA, antagonist mode); assay type: biochemical
[6] = biological target: human KOPr (Homo sapiens, UniProt P41145); test: Antagonism of dynorphin-stimulated [35S]GTPγS binding, CHO membranes overexpressing KOPr (SPA, antagonist mode); assay type: biochemical
[7] = biological target: T1, MOPr; test: [3H]naloxone competition displacement binding, MOPr-HEK293 membranes
[8] = biological target: T1, MOPr; test: [3H]naloxone dissociation kinetics from MOPr, MOPr-HEK293 membranes; assay type: binding; conditions: drug 1 μM
[9] = biological target: T1, MOPr; test: Basal [35S]GTPγS binding, membranes from CHO cells expressing a low level of MOPr; assay type: biochemical; conditions: 1 μM, CHO MOPr approximately 70 fmol per milligram of protein
[10] = biological target: MOPr in mouse brain membranes (Mus musculus, UniProt P42866); test: Basal [35S]GTPγS binding, whole mouse brain membranes (naive or morphine-pretreated mice); assay type: biochemical; conditions: 1 μM
[11] = tested on: cocaine seeking; design: method as in Giuliano et al. [2013]; conditions: ref Giuliano et al. [2013]; cited from earlier work
[12] = tested on: heroin seeking; design: method as in Giuliano et al. [2013]; conditions: ref Giuliano et al. [2013]; cited from earlier work
[13] = from fpKi, GTPγS antagonist mode

Sequence of MOPr in mouse brain membranes (P42866 whole entry): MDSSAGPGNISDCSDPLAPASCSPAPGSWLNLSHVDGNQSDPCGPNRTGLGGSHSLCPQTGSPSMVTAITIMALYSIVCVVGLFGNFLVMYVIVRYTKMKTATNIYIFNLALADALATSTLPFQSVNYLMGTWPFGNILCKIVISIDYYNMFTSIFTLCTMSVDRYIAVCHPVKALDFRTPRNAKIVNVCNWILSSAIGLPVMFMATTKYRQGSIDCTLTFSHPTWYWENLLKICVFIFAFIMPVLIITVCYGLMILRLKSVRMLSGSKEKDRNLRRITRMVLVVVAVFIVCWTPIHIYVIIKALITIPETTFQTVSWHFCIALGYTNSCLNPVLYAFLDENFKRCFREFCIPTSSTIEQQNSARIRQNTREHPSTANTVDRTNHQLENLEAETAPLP
Sequence of human NOPr (P41146 whole entry): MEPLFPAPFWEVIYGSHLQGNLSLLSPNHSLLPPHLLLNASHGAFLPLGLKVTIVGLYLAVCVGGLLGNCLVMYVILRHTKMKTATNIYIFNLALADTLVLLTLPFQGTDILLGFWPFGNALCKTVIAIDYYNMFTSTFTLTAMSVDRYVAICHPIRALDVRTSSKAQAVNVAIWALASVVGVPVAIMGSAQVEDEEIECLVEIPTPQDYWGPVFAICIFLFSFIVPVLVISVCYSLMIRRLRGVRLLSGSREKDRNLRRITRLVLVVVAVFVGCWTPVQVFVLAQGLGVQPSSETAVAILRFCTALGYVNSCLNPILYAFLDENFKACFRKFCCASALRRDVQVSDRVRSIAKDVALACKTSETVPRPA
T1 sequence (P35372 whole entry): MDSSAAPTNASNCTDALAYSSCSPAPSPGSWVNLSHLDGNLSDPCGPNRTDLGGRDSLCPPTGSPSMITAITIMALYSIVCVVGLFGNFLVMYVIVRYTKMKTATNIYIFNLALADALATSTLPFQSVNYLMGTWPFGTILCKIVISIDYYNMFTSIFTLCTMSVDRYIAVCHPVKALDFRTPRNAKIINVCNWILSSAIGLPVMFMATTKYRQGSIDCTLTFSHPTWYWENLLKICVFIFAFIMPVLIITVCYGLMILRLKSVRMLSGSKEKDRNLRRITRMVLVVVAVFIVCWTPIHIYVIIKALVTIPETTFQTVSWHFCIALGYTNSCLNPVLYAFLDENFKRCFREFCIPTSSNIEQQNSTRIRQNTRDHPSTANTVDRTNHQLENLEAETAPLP
Sequence of human KOPr (P41145 whole entry): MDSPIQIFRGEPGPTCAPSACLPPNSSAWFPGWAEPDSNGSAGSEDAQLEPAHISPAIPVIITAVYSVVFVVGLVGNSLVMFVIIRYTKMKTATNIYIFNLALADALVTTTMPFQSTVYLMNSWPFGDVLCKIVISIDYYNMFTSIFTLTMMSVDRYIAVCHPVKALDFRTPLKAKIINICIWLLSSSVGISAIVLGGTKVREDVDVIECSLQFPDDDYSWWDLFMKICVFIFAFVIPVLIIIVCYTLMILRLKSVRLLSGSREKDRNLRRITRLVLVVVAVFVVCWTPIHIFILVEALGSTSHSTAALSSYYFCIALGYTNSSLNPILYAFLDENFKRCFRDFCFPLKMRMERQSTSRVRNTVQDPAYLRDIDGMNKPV
Sequence of human DOPr (P41143 whole entry): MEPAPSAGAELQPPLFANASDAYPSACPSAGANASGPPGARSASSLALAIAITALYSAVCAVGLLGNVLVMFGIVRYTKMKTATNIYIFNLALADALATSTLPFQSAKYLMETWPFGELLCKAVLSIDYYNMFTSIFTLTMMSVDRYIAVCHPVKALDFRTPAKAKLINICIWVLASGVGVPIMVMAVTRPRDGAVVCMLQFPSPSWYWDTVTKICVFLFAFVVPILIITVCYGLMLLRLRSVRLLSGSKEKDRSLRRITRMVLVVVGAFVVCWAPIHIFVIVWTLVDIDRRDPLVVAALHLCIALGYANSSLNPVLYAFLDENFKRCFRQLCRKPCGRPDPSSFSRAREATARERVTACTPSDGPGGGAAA

Compound: Oc1ccc2c3c1O[C@H]1[C@H](O)CC[C@@]4(O)[C@@H](C2)N(CC2CC2)CC[C@]314 [6β-Naltrexol, 6-β-naltrexol]
- Antagonist potency (fpKi) NOPr ([1]; vs nociceptin, CHO cells overexpressing NOPr, mean ± SEM of three experiments): <5

Compound: CSCC[C@H](NC(=O)[C@H](Cc1ccccc1)NC(=O)CNC(=O)CNC(=O)[C@@H](N)Cc1ccc(O)cc1)C(=O)O [Met-Enk, methionine enkephalin acetate salt hydrate]
- pEC50 [2]: 6.00

Compound: C=C1CC[C@@]2(O)[C@H]3Cc4ccc(O)c5c4[C@@]2(CCN3CC2CC2)[C@H]1O5 [Nalmefene, nalmefene, reference compound]
- completeness of inhibition of the agonist response at MOPr [3]: did not produce complete inhibition
- pKi [1]: < 5.00
- enhancement of basal [35S]GTPγS binding [4]: 20%

Compound: Fc1cc(-c2cccc(-c3nc[nH]n3)c2)cc(F)c1CNC1Cc2ccccc2C1.O=P(O)(O)O [GSK1521498, N-{[3,5-difluoro-3′-(1H-1,2,4-triazol-3-yl)-4-biphenylyl]methyl}-2,3-dihydro-1H-inden-2-amine phosphate (1:1)]
- completeness of inhibition of the agonist response at MOPr ([3]; Met-Enk-stimulated GTPγS binding, CHO overexpressing MOPr): completely antagonize
- Ki ([3]; vs Met-Enk, CHO cells overexpressing MOPr, mean ± SEM of three experiments, read-out: Antagonist potency (fpKi) MOPr (converted)): 0.229 nM
- selectivity for MOPr over DOPr [5, 13]: 14 fold
- Ki ([5]; vs Met-Enk, CHO cells overexpressing DOPr, mean ± SEM of three experiments, read-out: Antagonist potency (fpKi) DOPr (converted)): 3.16 nM
- selectivity for MOPr over KOPr [6, 13]: 14 fold
- Ki ([6]; vs dynorphin, CHO cells overexpressing KOPr, mean ± SEM of three experiments, read-out: Antagonist potency (fpKi) KOPr (converted)): 3.31 nM
- Ki ([1]; vs nociceptin, CHO cells overexpressing NOPr, mean ± SEM of three experiments, read-out: Antagonist potency (fpKi) NOPr (converted)): 257 nM
- maximum displacement of specific 3H-naloxone binding ([7]; HEK293 MOPr membranes): 100%
- Ki ([7]; read-out: Affinity of binding (pKi) to MOPr (converted)): 0.417 nM
- rate of 3H-naloxone dissociation in the presence of drug [8]: unchanged
- inhibition of basal [35S]GTPγS binding ([4]; CHO membranes highly overexpressing MOPr (Bmax 14,500 fmol/mg protein)): up to 18%
- agonist activity when administered alone ([4]; at any of the opioid receptors, concentrations up to 100 μM): did not show agonist activity
- concentrations producing a significant inhibition of basal [35S]GTPγS binding ([4]; p < 0.001, ANOVA): greater than 0.4 nM
- effect on basal level of GTPγS binding [9]: did not modify
- effect on basal [35S]GTPγS binding, naïve mice ([10]; brain membranes from naïve mice): did not reduce
- effect on basal [35S]GTPγS binding, severe morphine pre-treatment ([10]; brain membranes, 75 mg morphine pellet sc 3 days): very slight but statistically significant inhibition
- effect on basal [35S]GTPγS binding, acute morphine pre-treatment ([10]; brain membranes, morphine 100 mg/kg sc 4 h before sacrifice): did not reduce
- effect on basal [35S]GTPγS binding, moderate morphine pre-treatment ([10]; brain membranes, sc morphine at 8-h intervals for 3 days): did not reduce
- greater reduction in cocaine seeking compared to naltrexone 3 mg/kg [11]: 2.5 fold
- greater reduction in heroin seeking compared to naltrexone 3 mg/kg [12]: 5.5 fold
